In ChEMBL document CHEMBL1148002, “Synthesis and evaluation of 2'-substituted cyclobutyl nucleosides and nucleotides as potential anti-HIV agents” (Bioorg Med Chem Lett, 2007):

Tests used:
[1] = Inhibition of recombinant wild type HIV reverse transcriptase; parameters: species or system Human immunodeficiency virus
[2] = Inhibition of wild type HIV reverse transcriptase in cell free assay; conditions: Human immunodeficiency virus
[3] = target: Human immunodeficiency virus type 1 reverse transcriptase (Human immunodeficiency virus 1, UniProt Q72547, M184I); experiment: Inhibition of HIV reverse transcriptase M184I mutant in cell free assay
[4] = Inhibition of HIV reverse transcriptase M184V mutant in cell free assay; conditions: Human immunodeficiency virus

Structure (SMILES) | IC50 [1] [µM] | IC50 [2] [µM] | IC50 [3] [µM] | IC50 [4] [µM]
Nc1nc(=O)n([C@H]2C[C@@H](COP(=O)(O)OP(=O)(O)OP(=O)(O)O)C2)cc1F | 4.7 | 6.9 | 6.1 | –
Nc1ccn([C@@H]2CS[C@H](COP(=O)(O)OP(=O)(O)OP(=O)(O)O)O2)c(=O)n1 [LAMIVUDINE TRIPHOSPHATE] | 3 | 6.5 | > 10 | > 10
